Like-named read-outs stand apart in the source and are kept apart here.
How the values were obtained:
[1] = target: T1, β5i subunit of human iCP (Homo sapiens, UniProt P20618+P28062); test: Inhibition of β5i activity (RA at 10 µM, IC50, IC50 shift), Suc-LLVY-AMC; format: biochemical; details: for Group efficiency (GE): ΔpIC50/ΔNheavy with compound 1 as reference
T1 construct: purchased Boston Biochem, Inc., Cambridge, MA, USA
Description: (§1) Residual activity measurements were performed at 10 μM final concentrations in the assay buffer (0.01% SDS, 50 mM Tris-HCl, 0.5 mM EDTA, pH 7.4). Stock solutions of the compounds were prepared in DMSO. To 50 μL of each compound in buffer, 25 μL of 0.8 nM human iCP or human cCP (both from Boston Biochem, Inc., Cambridge, MA, USA) were added. After incubation at 37 °C for 30 min, the reaction was started by adding of 25 μL of 100 μM relevant fluorogenic substrate: acetyl-Nle-Pro-Nle-Asp-AMC (Ac-nLPnLD-AMC, (Bachem, Bubendorf, Switzerland)) for β1, acetyl-Pro-Ala-Leu-7-amino-4-methylcoumarin (Ac-PAL-AMC, (Boston Biochem, Inc., Cambridge, MA, USA)) for β1i, t-butyloxycarbonyl-Leu-Arg-Arg-7-amino-4-methylcoumarin (Boc-LRR-AMC, (Bachem, Bubendorf, Switzerland)) for β2 and β2i, succinyl-Leu-Leu-Val-Tyr-7-amino-4-methylcoumarin (Suc-LLVY-AMC) (Bachem, Bubendorf, Switzerland) for β5 and β5i. Reaction progress was recorded on BioTek Synergy HT microplate reader by monitoring fluorescence at 460 nm (λex = 360 nm) for 90 min at 37 °C. The initial linear ranges were used to calculate velocity and determine residual activity. In the case of evaluation of β1, βi, β2, and β2i activities, the assay buffer was modified by replacing SDS with the proteasomal activator PA28α (Boston Biochem, Inc., Cambridge, MA, USA).
Final assay mixtures contained 0.2 nM human iCP or 0.2 nM human cCP in assay buffer (0.01% SDS (or PA28α in cases of β1, β1i subunits), 50 mM Tris-HCl, 0.5 mM EDTA, pH 7.4). Inhibitors were dissolved in DMSO and added to the black 96-well plates for at least eight different concentrations (the final concentration of DMSO was not more than 1%). […] Fluorescence was monitored at 460 nm (λex = 360 nm) for 90 min at 37 °C. The progress of the reactions was recorded and the initial linear ranges were used to calculate the velocity. IC50 values were calculated using GraphPadPrism (GraphPad Software, San Diego, CA, USA) and are means from at least three independent determinations.

[2] = target: T2, β2i subunit of human iCP (Homo sapiens, UniProt P40306+P49720); test: Residual β2i activity, Boc-LRR-AMC; format: biochemical; details: 10 µM, PA28α
T2 construct: purchased Boston Biochem, Inc., Cambridge, MA, USA
Description: as §1

[3] = UV-Vis-based stability assay in buffer; format: physicochemical; details: for Stability in Buffer (UV-Vis-based assay): after 1 h, assay buffer pH 7.4, 37 °C, 50 µM; for Stability in buffer solutions: assay buffer / PBS pH 7.4
Description: The aqueous stability of all compounds was determined spectrophotometrically by following the changes in the absorption spectra of the compounds. The buffer solution (50 mM Tris-HCl, 0.5 mM EDTA, pH 7.4) was pre-incubated at 37 °C. Aliquots of the compounds studied (1 mM in DMSO) were transferred to a 96-well flat-bottom UV-transparent microplate (Corning, CLS3635, Corning Inc, Corning, NY, USA) containing the buffer solution to obtain a 50 μM solution containing 5% DMSO (final volume, 300 μL). The plate was incubated without lid at 37 °C in a plate reader (Synergy H4, BioTek Instruments, Inc., Santa Clara, CA, USA) and the absorbance spectrum (244–400 nm) was acquired in sweep mode after 0, 15, 30, 60, 120, 180, and 240 min using a discontinuous kinetic procedure in Gen5 software (BioTek Instruments, Inc., Santa Clara, CA, USA). The time required to read the entire plate was 3 min. To determine the baseline, the compound solution was replaced with pure DMSO and subtracted from each reading. Compounds with an absorbance maximum of less than 0.20 AU were not evaluated using these assays due to the high experimental error. For other compounds, the relative absorbance difference between the first time point and 60 min at the most responsive wavelength was calculated. If the relative absorbance difference for the compound in the buffer was below 0.1, between 0.1–0.2, and above 0.2, the compound was classified as stable, intermediate, and unstable, respectively.

[4] = target: T3, human caspase-1 (Homo sapiens, UniProt P29466); test: Caspase-1 assay, Ac-YVAD-AMC; format: biochemical; details: 30 min pre-incubation, read-out: Residual activity [%] ± SD, Caspase-1
T3 construct: purchased Sigma Aldrich, St. Louis, MO, USA C5482; host or cells: E. coli
T3 sequence (P29466 120-297 limits assumed): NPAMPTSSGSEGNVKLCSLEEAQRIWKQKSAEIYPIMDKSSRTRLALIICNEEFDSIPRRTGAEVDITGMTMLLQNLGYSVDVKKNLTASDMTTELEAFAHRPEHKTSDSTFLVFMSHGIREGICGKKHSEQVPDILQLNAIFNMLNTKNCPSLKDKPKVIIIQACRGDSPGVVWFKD
T3 sequence (P29466 317-404 limits assumed): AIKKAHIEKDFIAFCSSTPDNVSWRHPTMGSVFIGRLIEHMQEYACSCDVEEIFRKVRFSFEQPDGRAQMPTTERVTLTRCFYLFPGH
Description: The inhibitory activity of the compounds against caspase-1 was investigated by fluorimetric assay using Ac-YVAD-AMC (SCP0069-5 mg, Sigma Aldrich, St. Louis, MO, USA) as a substrate. Recombinant human caspase-1 (expressed in E. coli, C5482, batch: SLBX3303, Sigma Aldrich, St. Louis, MO, USA) was diluted with 1 mL of assay buffer (50 mM HEPES pH 7.4, 100 mM NaCl, 1 mM EDTA, 10% (v/v) glycerol, 0.1% CHAPS, 1 mM DTT), divided into 50 µL aliquots and stored at −80 °C.
Briefly, compounds were incubated at a concentration of 100 µM (or 1% (v/v) DMSO as a control) with caspase-1 (1:5 dilution of caspase-1 stock solution) in assay buffer without DTT (to exclude reaction of compounds with DTT) in a 384-well microplate at room temperature for 30 min. The reaction was started by adding the substrate Ac-YVAD-AMC (final concentration: 20 µM) and monitored at λex = 360/40 and λem = 460/40 (Synergy HT, BioTek Instruments, Inc., Santa Clara, CA, USA) for 1 h. The initial linear ranges were used to calculate the velocity and determine RAs. Z-Val-Ala-DL-Asp-fluoromethylketone (N-1510, Bachem, Bubendorf, Switzerland) was used as a positive control.

[5] = 30 min pre-incubation, SDS activator, read-out: IC50 (µM), β5i
[6] = 30 min pre-incubation, SDS activator
[7] = 0 min pre-incubation (IC50 shift), read-out: IC50 (µM), β5i, without pre-incubation

Structure (SMILES)	IC50 [1, 5] [µM]	Group efficiency (GE) [1]	β2i (RA [%]) ([2]; Table 3)	Stability in Buffer (UV-Vis-based assay) [3]	remaining activity at 100 µM [4] [%]	β2i (RA [%]) ([2]; Table 6)	Stability in buffer solutions [3]	IC50 (µM), β5i [1, 6]	IC50 [1, 7] [µM]	IC50 ([1]; IC50 (µM), β5i, 60-min pre-incubation, 60 min pre-incubation (IC50 shift)) [µM]
CC(=O)Oc1ccc2oc(C#N)nc2c1 [Compound 15]	7.4 ± 1.7	0.26	NA (NA, Not active (RA above 90%))	stable ^c (relative absorbance difference for the compound in the buffer was below 0.1)	12 ± 2	–	–	–	–	–
CC(C)C[C@H](NC(=O)Cc1ccc2oc(C#N)nc2c1)B(O)O [Compound 40]	2.4 ± 1	–	–	stable ^b (relative absorbance difference for the compound in the buffer was below 0.1)	> 50	NA (NA, Not active (RA above 95%))	stable	–	–	–
CC(=O)Oc1cccc2oc(C#N)nc12 [Compound 14]	19 ± 9	0.16	NA (NA, Not active (RA above 90%))	stable ^c (relative absorbance difference for the compound in the buffer was below 0.1)	49 ± 5	–	–	single digit micromolar	–	–
CC(C)C[C@H](NC(=O)CCn1c(C#N)nc2cccc(Cl)c21)B1O[C@@H]2C[C@@H]3C[C@@H](C3(C)C)[C@]2(C)O1 [Compound 38]	0.6 ± 0.1	–	–	stable ^b,c (relative absorbance difference for the compound in the buffer was below 0.1)	> 50	NA (NA, Not active (RA above 95%))	–	–	6.4 ± 0.7	–
CC(C)C[C@H](NC(=O)CCCn1c(C#N)nc2ccccc21)B1O[C@@H]2C[C@@H]3C[C@@H](C3(C)C)[C@]2(C)O1 [Compound 31]	5.7 ± 0.9	–	–	stable ^b,c (relative absorbance difference for the compound in the buffer was below 0.1)	> 50	NA (NA, Not active (RA above 95%))	–	–	–	–
CC(C)C[C@H](NC(=O)CCn1c(C#N)nc2ccccc21)B(O)O [Compound 34]	2.2 ± 0.6	–	–	–	> 50	NA (NA, Not active (RA above 95%))	–	–	5.1	–
COc1cccc2oc(C#N)nc12 [Compound 6]	11 ± 7	0.44	NA (NA, Not active (RA above 90%))	stable ^c,d (relative absorbance difference for the compound in the buffer was below 0.1)	–	–	–	–	–	–
N#Cc1nc2cc(O)ccc2o1 [Compound 11]	4.2 ± 2.5	1.30	NA (NA, Not active (RA above 90%))	stable ^c (relative absorbance difference for the compound in the buffer was below 0.1)	0	–	–	single digit micromolar	–	–
CC(C)C[C@H](NC(=O)CCn1c(C#N)nc2ccccc21)B1O[C@@H]2C[C@@H]3C[C@@H](C3(C)C)[C@]2(C)O1 [Compound 30]	0.6	–	–	stable ^b,c (relative absorbance difference for the compound in the buffer was below 0.1)	> 50	NA (NA, Not active (RA above 95%))	–	–	1.5 ± 0.3	–
N#Cc1nc2c(O)cccc2o1 [Compound 10]	3.6 ± 2.8	1.36	NA (NA, Not active (RA above 90%))	stable ^c (relative absorbance difference for the compound in the buffer was below 0.1)	9 ± 3	–	–	single digit micromolar	10 ± 1	0.5 ± 0.07
CC(C)C[C@H](NC(=O)Cc1ccc2oc(C#N)nc2c1)B1O[C@@H]2C[C@@H]3C[C@@H](C3(C)C)[C@]2(C)O1 [Compound 39]	3.1 ± 0.3	–	–	stable ^b,c (relative absorbance difference for the compound in the buffer was below 0.1)	> 50	NA (NA, Not active (RA above 95%))	stable	–	3.2 ± 0.4	–
CC(C)C[C@H](NC(=O)CCCn1c(C#N)nc2ccccc21)B(O)O [Compound 35]	7.9 ± 0.5	–	–	stable ^b (relative absorbance difference for the compound in the buffer was below 0.1)	> 50	NA (NA, Not active (RA above 95%))	–	–	–	–
N#Cc1nc2cccc(O)c2o1 [Compound 13]	2.1 ± 1.2	1.60	83%	stable ^c (relative absorbance difference for the compound in the buffer was below 0.1)	5 ± 1	–	–	single digit micromolar	–	–
C=Cc1nc(CC(=O)N[C@@H](CC(C)C)B2O[C@@H]3C[C@@H]4C[C@@H](C4(C)C)[C@]3(C)O2)cs1 [Compound 28]	1.4	–	–	–	> 50	NA (NA, Not active (RA above 95%))	–	–	–	–

From paper PMC8700061, “Fragment-Sized and Bidentate (Immuno)Proteasome Inhibitors Derived from Cysteine and Threonine Targeting Warheads” (Cells, 2021)
